We go through five compounds from US20230312576A1, “4-(7H-PYRROLO[2,3-D]PYRIMIDIN-4-YL)-3,6-DIHYDROPYRIDINE-1-(2H)-CARBOXAMIDE DERIVATIVES AS LIMK AND/OR ROCK KINASES INHIBITORS FOR USE IN THE TREATMENT OF CANCER” (CENTRE NATIONAL DE LA RECHERCHE SCIENTIFIQUE, priority 2020, published 2023).

Molecules are shown by their SMILES. Read-outs that look alike come from different tables or passages of the source.

One test has as its target ROCK1 (Homo sapiens (Human), UniProt Q13464). The test can be described thus: Z'Lyte assay, ROCK1 inhibition at a single concentration. The format is biochemical. The settings on record: read-out: % inhibition (ROCK1) 1 uM, 1 uM.
A further test has as its target LIMK1 (Homo sapiens (Human), UniProt P53667). The test can be described thus: Lanthascreen Eu binding assay (TR-FRET), inhibition of LIMK1. Conditions: Lanthascreen Eu binding assay. Background: In TR-FRET formats the signal depends on donor and acceptor labels being close together.
For test [1], the system named is cofilin phosphorylation, MPNST90-8 cells. Description: Cofilin phosphorylation by Western Blot in MPNST90-8 cells. Conditions: read-out: % inhibition Cofilin phosphorylation MPNST90-8 cells treated 2 h with 25 uM of inhibitor, MPNST90-8 cells, 25 uM. The format is cell-based. On the technique in general: In western blotting, separated proteins are transferred to a membrane and probed.

Test [2] relates to U2OS cells. The test can be described thus: Wound-healing migration assay. The format is cell-based. The settings on record: 2.5 μM, 24 h.
In the next test the target is LIMK2 (Homo sapiens (Human), UniProt P53671). The test can be described thus: Lanthascreen Eu binding assay (TR-FRET), inhibition of LIMK2. Conditions: Lanthascreen Eu binding assay.
Chain of LIMK2 (P53671 whole entry): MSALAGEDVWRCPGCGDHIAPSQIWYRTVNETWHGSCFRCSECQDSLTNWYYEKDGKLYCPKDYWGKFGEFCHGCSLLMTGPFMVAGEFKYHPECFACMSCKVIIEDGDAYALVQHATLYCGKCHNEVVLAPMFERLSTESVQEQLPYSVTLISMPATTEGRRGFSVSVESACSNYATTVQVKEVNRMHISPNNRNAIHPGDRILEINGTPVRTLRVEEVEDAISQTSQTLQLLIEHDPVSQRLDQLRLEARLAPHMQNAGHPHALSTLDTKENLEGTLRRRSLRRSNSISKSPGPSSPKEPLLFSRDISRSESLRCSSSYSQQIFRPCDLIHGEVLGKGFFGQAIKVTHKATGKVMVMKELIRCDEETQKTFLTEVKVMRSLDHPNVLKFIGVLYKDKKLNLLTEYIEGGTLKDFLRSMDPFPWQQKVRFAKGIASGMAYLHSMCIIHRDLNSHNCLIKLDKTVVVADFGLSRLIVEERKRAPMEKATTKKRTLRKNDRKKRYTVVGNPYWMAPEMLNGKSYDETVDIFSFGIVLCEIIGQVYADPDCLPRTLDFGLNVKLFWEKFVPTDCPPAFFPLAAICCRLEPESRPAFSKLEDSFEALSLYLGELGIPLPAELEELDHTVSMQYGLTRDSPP
Test [3] has as its system U2OS cells. The test can be described thus: Microtubule dynamics by visualizing mitotic spindles. The format is cell-based. The settings on record: 2.5 μM, 24 hours.
The target in another test is ROCK2 (Homo sapiens (Human), UniProt O75116). The test can be described thus: Z'Lyte assay, ROCK2 inhibition at a single concentration. The format is biochemical. Conditions: read-out: % inhibition (ROCK2) 1 uM, 1 uM.
Chain of ROCK2 (O75116 whole entry): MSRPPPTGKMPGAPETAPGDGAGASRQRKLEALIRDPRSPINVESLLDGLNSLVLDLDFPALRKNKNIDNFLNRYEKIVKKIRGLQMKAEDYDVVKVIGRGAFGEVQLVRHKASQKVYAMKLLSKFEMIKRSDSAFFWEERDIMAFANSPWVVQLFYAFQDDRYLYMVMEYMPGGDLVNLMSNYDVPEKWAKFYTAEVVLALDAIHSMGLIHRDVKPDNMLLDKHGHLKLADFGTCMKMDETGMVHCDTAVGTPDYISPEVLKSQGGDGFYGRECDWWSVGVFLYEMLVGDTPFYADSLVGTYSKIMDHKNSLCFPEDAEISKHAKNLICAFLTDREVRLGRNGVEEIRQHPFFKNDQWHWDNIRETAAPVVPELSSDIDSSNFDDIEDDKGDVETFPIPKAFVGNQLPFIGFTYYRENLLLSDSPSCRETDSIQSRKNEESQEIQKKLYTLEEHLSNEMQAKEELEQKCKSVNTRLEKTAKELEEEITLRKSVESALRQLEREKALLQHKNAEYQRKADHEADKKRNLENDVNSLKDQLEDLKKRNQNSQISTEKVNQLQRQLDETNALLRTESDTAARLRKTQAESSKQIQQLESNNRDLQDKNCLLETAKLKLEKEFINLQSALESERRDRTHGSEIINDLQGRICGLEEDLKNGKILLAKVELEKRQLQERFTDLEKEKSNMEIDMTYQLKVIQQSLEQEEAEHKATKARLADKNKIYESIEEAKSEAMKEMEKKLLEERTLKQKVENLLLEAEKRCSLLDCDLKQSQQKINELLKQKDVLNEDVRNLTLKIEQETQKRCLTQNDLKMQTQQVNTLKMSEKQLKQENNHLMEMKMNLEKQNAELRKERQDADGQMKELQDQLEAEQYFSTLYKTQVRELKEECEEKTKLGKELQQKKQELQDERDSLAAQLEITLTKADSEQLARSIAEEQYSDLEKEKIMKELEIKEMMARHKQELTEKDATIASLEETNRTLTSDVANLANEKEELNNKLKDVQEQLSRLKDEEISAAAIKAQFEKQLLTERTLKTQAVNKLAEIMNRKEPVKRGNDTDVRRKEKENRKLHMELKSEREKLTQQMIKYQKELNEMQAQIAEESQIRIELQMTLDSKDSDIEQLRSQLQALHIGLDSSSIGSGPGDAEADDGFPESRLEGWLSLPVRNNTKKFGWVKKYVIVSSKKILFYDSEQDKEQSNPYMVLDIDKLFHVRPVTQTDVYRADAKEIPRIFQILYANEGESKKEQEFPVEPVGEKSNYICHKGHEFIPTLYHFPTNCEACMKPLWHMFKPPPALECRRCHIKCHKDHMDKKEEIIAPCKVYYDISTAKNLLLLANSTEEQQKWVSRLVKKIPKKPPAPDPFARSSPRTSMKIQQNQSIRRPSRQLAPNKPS
Test [4] relates to cofilin phosphorylation, MPNST88-14 cells. Description: Cofilin phosphorylation by Western Blot in MPNST88-14 cells. It counts as cell-based. The settings on record: read-out: % inhibition Cofilin phosphorylation MPNST88-14 cells treated 2 h with 25 uM of inhibitor, MPNST88-14 cells, 25 uM.
In test [5] the test system is cofilin phosphorylation, HeLa cells. The test can be described thus: Cofilin phosphorylation by Western Blot (anti-phospho-Ser3-cofilin) in HeLa cells. The settings on record: Homo sapiens, 2 h. It counts as cell-based.
For test [6], the system named is SOD1-G93A transgenic mice. The test can be described thus: In vivo assay on a mouse model of ALS. Conditions: 10 mg/Kg intraperitoneal, 2 times a week from week 8.
In the next test the test system is MPNST cell line. The settings on record: published data; cited from earlier work.
The subject of another test is HeLa cells. Description: Cytotoxicity, CellTiter-Glo Luminescent Cell Viability assay, HeLa. It counts as cell-based. The settings on record: 48 hours, read-out: EC50 (inhibitor concentration corresponding to half of live cells). (In general: ATP-based viability assays read luminescence as a measure of living cells.)
The next test deals with LIMK1 and LIMK2. The test can be described thus: Lanthascreen Eu binding assay, Ki without LIMK isoform. Conditions: LIMK isoform not stated.
[7] abbreviates: HeLa, read-out: % inhibition of cofilin phosphorylation in HeLa cells (treatment 2 h, at 25 μM), Table 2, normalized to the control condition DMSO.
[8] abbreviates: read-out: % inhibition Cofilin phosphorylation HeLa cells treated 2 h with 25 uM of inhibitor, HeLa cells, 25 uM.

Chain of LIMK1 (P53667 whole entry): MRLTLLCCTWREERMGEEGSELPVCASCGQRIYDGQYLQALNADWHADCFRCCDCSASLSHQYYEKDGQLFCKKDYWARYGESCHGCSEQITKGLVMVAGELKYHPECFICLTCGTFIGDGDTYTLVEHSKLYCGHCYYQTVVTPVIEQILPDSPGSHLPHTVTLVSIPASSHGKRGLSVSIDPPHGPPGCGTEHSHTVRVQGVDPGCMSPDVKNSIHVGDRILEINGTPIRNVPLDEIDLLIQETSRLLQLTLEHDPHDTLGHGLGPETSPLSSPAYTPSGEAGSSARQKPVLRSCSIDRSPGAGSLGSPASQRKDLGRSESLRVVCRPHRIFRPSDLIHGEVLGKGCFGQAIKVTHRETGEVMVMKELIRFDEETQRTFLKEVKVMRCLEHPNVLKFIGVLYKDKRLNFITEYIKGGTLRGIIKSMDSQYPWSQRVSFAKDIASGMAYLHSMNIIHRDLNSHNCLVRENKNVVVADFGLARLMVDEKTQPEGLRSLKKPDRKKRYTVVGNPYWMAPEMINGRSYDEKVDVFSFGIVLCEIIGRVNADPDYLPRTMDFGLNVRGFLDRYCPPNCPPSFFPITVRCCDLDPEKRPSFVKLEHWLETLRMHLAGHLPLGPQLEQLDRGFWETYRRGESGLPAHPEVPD
Chain of ROCK1 (Q13464 whole entry): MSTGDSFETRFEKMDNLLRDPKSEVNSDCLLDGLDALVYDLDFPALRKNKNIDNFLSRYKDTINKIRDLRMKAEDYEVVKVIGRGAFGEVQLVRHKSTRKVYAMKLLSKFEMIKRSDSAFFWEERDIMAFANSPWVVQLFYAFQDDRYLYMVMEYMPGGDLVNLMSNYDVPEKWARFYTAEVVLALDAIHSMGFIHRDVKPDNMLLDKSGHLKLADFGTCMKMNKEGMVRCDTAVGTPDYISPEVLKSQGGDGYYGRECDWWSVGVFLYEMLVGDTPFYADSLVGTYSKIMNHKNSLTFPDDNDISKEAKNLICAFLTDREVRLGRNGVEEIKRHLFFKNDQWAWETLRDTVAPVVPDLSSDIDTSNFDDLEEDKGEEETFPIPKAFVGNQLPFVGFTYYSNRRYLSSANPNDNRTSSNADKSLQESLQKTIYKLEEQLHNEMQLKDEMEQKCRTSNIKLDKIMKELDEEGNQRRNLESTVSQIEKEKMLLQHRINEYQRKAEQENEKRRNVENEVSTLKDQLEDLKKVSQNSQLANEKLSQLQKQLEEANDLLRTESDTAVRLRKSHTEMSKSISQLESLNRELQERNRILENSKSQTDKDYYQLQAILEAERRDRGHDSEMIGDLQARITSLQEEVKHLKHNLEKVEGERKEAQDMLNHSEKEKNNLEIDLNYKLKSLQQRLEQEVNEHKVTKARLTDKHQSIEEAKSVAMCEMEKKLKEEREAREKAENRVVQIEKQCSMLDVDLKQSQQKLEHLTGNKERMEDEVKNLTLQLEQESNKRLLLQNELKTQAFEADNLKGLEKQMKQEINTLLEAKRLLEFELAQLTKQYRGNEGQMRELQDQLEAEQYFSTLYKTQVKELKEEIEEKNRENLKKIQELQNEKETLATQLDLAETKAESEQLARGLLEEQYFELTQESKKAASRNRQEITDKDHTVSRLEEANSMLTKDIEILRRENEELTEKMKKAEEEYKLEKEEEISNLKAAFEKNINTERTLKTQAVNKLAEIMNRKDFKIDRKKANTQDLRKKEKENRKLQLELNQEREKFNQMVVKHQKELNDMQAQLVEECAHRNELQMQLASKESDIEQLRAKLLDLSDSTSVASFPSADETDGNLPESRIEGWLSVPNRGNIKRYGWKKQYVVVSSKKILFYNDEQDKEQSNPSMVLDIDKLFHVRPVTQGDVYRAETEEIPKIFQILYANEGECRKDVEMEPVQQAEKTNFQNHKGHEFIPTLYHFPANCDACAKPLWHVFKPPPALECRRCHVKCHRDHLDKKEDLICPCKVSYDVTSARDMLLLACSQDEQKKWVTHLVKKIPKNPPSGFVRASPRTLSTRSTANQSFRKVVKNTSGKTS

Regarding `Cc1c[nH]c2ncnc(C3=CCN(C(=O)Nc4cccc(Oc5ccccc5)c4)CC3)c12` [Compound 15, 4-(5-Methyl-7H-pyrrolo[2,3-d]pyrimidin-4-yl)-N-(3-phenoxy-phenyl)-3,6-dihydropyridine-1(2H)-carboxamide], the inhibition – broadly, the relative decrease from the control value, in per cent – at 1 µM at ROCK1 turned out to be 44%; on ROCK2 it was 24%. Besides, the Ki (commonly a dissociation constant, usually derived from enzyme kinetics or from competition with a known ligand) at LIMK1 was determined as 19.4 nM; on LIMK2, 14.4 nM. Besides, the inhibition at 25 µM was 83.2% in test [1], 78.6% in test [4], 92.1% in [5] (setting [7]) and 92.1% in [5] (setting [8]). The “inhibition of U2OS cell migration upon scratch” value with U2OS cells [2] is “particularly efficient”. The “effects on microtubule dynamics (mitotic spindles)” value with U2OS cells [3] is “strong effects on microtubule dynamics”.
Take `O=C(Nc1cccc(F)c1)N1CC=C(c2ncnc3[nH]c4c(c23)CCC4)CC1` [Compound 110, N-(3-Fluorophenyl)-4-(5,6,7,8-tetrahydrocyclopenta[4,5]pyrrolo[2,3-d]pyrimidin-4-yl)-3,6-dihydropyridine-1(2H)-carboxamide]: the inhibition at 1 µM at ROCK1 came to 3%; on ROCK2, 9%. Besides, the Ki on LIMK1 turned out to be 5 nM; on LIMK2 it was 41 nM. The “later development of the disease phenotype and endpoint of the disease (survival)” value in test [6] was “do not observed improvement”. In addition, in test [6], the loss of weight result is listed as “significant effect on delaying”. In addition, the “onset of motor symptoms (early Neuroscore stages and first time decay in the rotarod test)” value in test [6] is “significant effect on delaying”. For the same compound, the inhibition at 25 µM in [5] (setting [7]) and in test [5] (setting [8]) was 79% throughout.
`Cc1cc(C(=O)Nc2cccc(C(=O)Nc3cccc(C(F)(F)F)c3)c2)on1` [Compound T56-LIMKi]: in the test on MPNST cell line, the EC50 is approximately 20000 nM.
Take `CC(C)C(=O)Nc1ncc(-c2cc(C(F)F)nn2-c2c(Cl)cccc2Cl)s1` [LIMKi3]: in the test with HeLa cells, the EC50 was 9000 nM.
On LIMK1 and LIMK2, `Cc1c[nH]c2ncnc(N3CCC(CN)(C(=O)Nc4cccc(OC(=O)N(C)C)c4)CC3)c12` [LX7101, reference compound] yielded an inhibition constant (Ki) of 3.9 nM. The inhibition at 25 µM in test [5] (setting [7]) worked out at 85.1%.
